The test system of the assay is cucumber phytophthora blight fungi (Phytophthora capsici). Briefly: Test for controlling cucumber phytophthora blight fungi (titer plate growth test). The format is cell-based. As to conditions: 4.5 mg in 100 μL dimethyl sulfoxide, 1 μL portion plus 150 μL PDB medium with zoospores; 27° C., three days; absorbance at 600 nm; Efficacy=100×(X−Y)/X. The method, then: Test example 1: Test for controlling cucumber phytophthora blight fungi (Phytophthora capsici)
Four point five (4.5) milligrams of the present compound was diluted with 100 μL of dimethyl sulfoxide. One (1) μL portion of the diluted liquid was dispensed into a titer plate (96 wells), and thereto was then dispensed 150 μL of a potato dextrose broth medium (PDB medium) containing zoospores of cucumber phytophthora blight fungi (Phytophthora capsici). This plate was cultured at 27° C. for three days, thereby allowing the cucumber phytophthora blight fungi to undergo proliferation, and the absorbance at 600 nm of each well of the titer plate was then measured to determine a degree of growth of the cucumber phytophthora blight fungi. The efficacy was calculated from the determined degree of growth by the below-mentioned “Equation 1”. As a result, the efficacy of the Present compound was 90% or more. Efficacy=100×(X−Y)/X “Equation 1” where X: Degree of fungal growth in non-treated area Y: Degree of fungal growth in treated area
In the test example, a non-treated area means an area in which a test was conducted in the same manner, except that dimethyl sulfoxide was dispensed in place of the present compound diluted with dimethyl sulfoxide.

Where only a bound is given, the exact number is not on record here.

Regarding `CCOC(=O)COc1ncccc1Oc1cc(NC(N)=O)c(F)cc1Cl` [Present compound], the efficacy is reported as not below 90%.
With `CCOC(=O)COc1ncccc1Oc1cc(NC(C)=O)c(F)cc1Cl` [N-[4-chloro-2-fluoro-5-{2-(ethoxycarbonyl)methoxy-3-pyridyloxy}phenyl]acetamide], the efficacy entry is recorded as “less than 50%”.

Source of the values: patent publication US10624343B2, “Phenyl urea compound, and use thereof” (Sumitomo Chemical Company, Limited, priority 2016, dated 2020).
